Measurements as given in ChEMBL document CHEMBL3785073, “Antiviral Indolosesquiterpenoid Xiamycins C-E from a Halophilic Actinomycete” (J Nat Prod, 2016).
Calls of active or inactive are those of the source. The calls are words filed in the database; no cut-off is given here.

Tests used:
[1] = Selectivity index, ratio of CC50 for African green monkey Vero cells to EC50 for PEDV infected in African green monkey Vero cells
[2] = test system: Porcine epidemic diarrhea virus; test: Antiviral activity against PEDV infected in African green monkey Vero cells assessed as reduction in virus-induced cytopathic effect after 72 hrs by MTT assay; type: functional, cell-based
[3] = Cytotoxicity against African green monkey Vero cells after 48 hrs by MTT assay; type: cell-based; details: chlorocebus sabaeus
[4] = test system: Porcine epidemic diarrhea virus; test: Antiviral activity against PEDV infected in African green monkey Vero cells assessed as suppression of GP2 spike protein mRNA level after 24 hrs by RT-PCR analysis; type: functional, cell-based
[5] = test system: Porcine epidemic diarrhea virus; test: Antiviral activity against PEDV infected in African green monkey Vero cells assessed as suppression of GP2 spike protein expression at 5 uM after 24 hrs by Western blot analysis; type: functional, cell-based
[6] = test system: Porcine epidemic diarrhea virus; test: Antiviral activity against PEDV infected in African green monkey Vero cells assessed as suppression of GP6 neucleocapsid protein mRNA level after 24 hrs by RT-PCR analysis; type: functional, cell-based
[7] = test system: Porcine epidemic diarrhea virus; test: Antiviral activity against PEDV infected in African green monkey Vero cells assessed as suppression of GP5 neucleocapsid protein mRNA level after 24 hrs by RT-PCR analysis; type: functional, cell-based
[8] = test system: Porcine epidemic diarrhea virus; test: Antiviral activity against PEDV infected in African green monkey Vero cells assessed as suppression of GP6 neucleocapsid protein expression after 24 hrs by Western blot analysis; type: functional, cell-based
[9] = test system: Porcine epidemic diarrhea virus; test: Antiviral activity against PEDV infected in African green monkey Vero cells assessed as suppression of GP2 spike protein expression after 24 hrs by Western blot analysis; type: functional, cell-based
[10] = test system: Porcine epidemic diarrhea virus; test: Antiviral activity against PEDV infected in African green monkey Vero cells assessed as suppression of GP6 neucleocapsid protein expression after 24 hrs by FITC-based immunofluorescence assay; type: functional, cell-based
[11] = test system: Porcine epidemic diarrhea virus; test: Antiviral activity against PEDV infected in African green monkey Vero cells assessed as suppression of GP6 neucleocapsid protein expression at 10 uM after 24 hrs by FITC-based immunofluorescence assay; type: functional, cell-based

Compound | Ratio CC50/EC50 [1] | EC50 [2] [µM] | CC50 at 48 h [3] [µM] | Activity [4] | Activity [5] | Activity [6] | Activity [7] | Activity [8] | Activity [9] | Activity [10] | Activity [11]
C[C@@]1(C(=O)O)[C@@H](O)CC[C@]2(C)c3cc4c(cc3CC[C@@H]12)[nH]c1ccccc14 [XIAMYCIN] | 7 | 20.1 | 138 |  |  |  |  |  |  |  | 
C[C@@]1(C(=O)O)[C@@H](O)CC[C@]2(C)c3cc4c(cc3[C@@H](O)C[C@@H]12)[nH]c1ccccc14 | 6.75 | 11.5 | 76.9 |  |  |  |  |  |  |  | 
C[C@@]1(C(=O)O)[C@@H](O)CC[C@]2(C)c3cc4c([nH]c5ccccc54)c(Cl)c3CC[C@@H]12 | 12.89 | 12.8 | 162 |  |  |  |  |  |  |  | 
COC(=O)[C@]1(C)[C@@H](O)CC[C@]2(C)c3cc4c(cc3[C@@H](O)C[C@@H]12)[nH]c1ccccc14 | 60.31 | 0.93 | 56 | Dose-dependent effect | Dose-dependent effect | Dose-dependent effect | Dose-dependent effect | Dose-dependent effect | Dose-dependent effect | Dose-dependent effect | 
COC(=O)[C@]1(C)[C@@H](O)CC[C@]2(C)c3cc4c(cc3CC[C@@H]12)[nH]c1ccccc14 | 18.09 | 5.69 | 103 |  |  |  |  |  |  |  | 
O=c1cnn([C@@H]2O[C@H](CO)[C@@H](O)[C@H]2O)c(=O)[nH]1 [6-AZAURIDINE] | 12.7 | 4.48 | 57.3 |  | Active |  |  |  |  |  | Active
COC(=O)[C@]1(C)[C@@H](O)CC[C@]2(C)c3cc4c(cc3C(=O)C[C@@H]12)[nH]c1ccccc14 | 34.63 | 2.89 | 98.7 | Active | Active |  |  |  |  |  | 
